Data: patent EP0863156A1, “Peptides useful as somatostatin antagonists” (American Cyanamid Company, priority 1997, dated 1998)
Square brackets hold non-standard residues; d marks the D form. Peptide text beside a SMILES is read from it.

What was measured:
[1] = system: serum growth hormone (GH) levels; experiment: In vivo serum growth hormone levels in anaesthetized rats (radioimmunoassay); set-up: species or system Male Sprague-Dawley rats; settings: for SGH: i.v., BIM 23014C 10 µg at 60 min
Method: (§1) Evaluation in anaesthetized rats. Male Sprague-Dawley rats are anaesthetized with Sagatal and fitted so as to allow efficient intravenous treatment with control and test compounds as well as frequent blood sampling. Blood samples are tested for growth hormone (GH) levels by radioimmunoassay. Thirty minutes after the initiation of blood sampling, rats are given 5 µg, 25 µg or 50 µg of peptide 1.
(§2) Peptide 1 is tested in combination with growth hormone releasing factor (GRF), to investigate whether said peptide may be mimicking the action of GRF. Anaesthetized rats are given GRF (1 µg) alone and in combination with peptide 1 (50 µg). […]

Male Sprague-Dawley rats = experiment: Serum growth hormone levels in anaesthetized rats after intravenous treatment (radioimmunoassay); format: in vivo; settings: for SGH: GRF 1 µg + Peptide 1 50 µg at 30 min
Method: as §1, §2

[2] = system: spontaneous growth hormone secretory pulses; experiment: Spontaneous growth hormone secretory pulses in conscious rats under intravenous infusion; format: in vivo, Male Sprague-Dawley rats; settings: Figure 5
Method: Evaluation in conscious rats. Male Sprague-Dawley rats are fitted so as to allow efficient intravenous treatment with control and test compounds as well as frequent blood sampling. Blood samples are tested for growth hormone (GH) levels by radioimmunoassay. Blood samples are taken over a 12 hour period. At a 6 hour time point, peptide 1 is infused intravenously (300 µg/hr) into conscious, freely moving male rats for two hours. Control animals receive saline infusions over the same time period. […] It is known, SRIF is required for growth hormone pulsatility and that an SRIF antagonist abolishes said pulsatility (see Tannenbaum, G.S. and Ling, N., Endocrinology, 115, 1952-1957, 1984, incorporated herein by reference).

SRIF receptors = target: T1, SRIF receptors (Rattus norvegicus, UniProt P30680); experiment: Yeast bioassay for SRIF antagonist activity (zone of growth inhibition of LY364 cells growing in response to SRIF); format: cell-based; settings: 10 µL of 5 mg/mL on filter disk, S-14 10 nM
T1 construct: expressed in transfected cells; host or cells: Saccharomyces cerevisiae strain LY364
T1 sequence (P30680 whole entry): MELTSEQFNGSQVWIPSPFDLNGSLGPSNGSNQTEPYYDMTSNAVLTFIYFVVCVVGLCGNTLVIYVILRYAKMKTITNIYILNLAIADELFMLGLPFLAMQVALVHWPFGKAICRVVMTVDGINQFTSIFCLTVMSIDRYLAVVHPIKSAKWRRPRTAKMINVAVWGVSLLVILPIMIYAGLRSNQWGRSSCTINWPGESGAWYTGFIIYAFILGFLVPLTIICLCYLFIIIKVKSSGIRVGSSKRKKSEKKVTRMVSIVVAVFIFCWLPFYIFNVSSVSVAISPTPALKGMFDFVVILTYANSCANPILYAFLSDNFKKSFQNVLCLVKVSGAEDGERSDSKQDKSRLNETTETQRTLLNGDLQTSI
Method: Agar plates containing LY364 cells that are growing in the presence of added SRIF are the basis for a sensitive SRIF antagonist assay, whereby zones of growth inhibition result from the addition of SRIF antagonists to the surface of the agar plate (see L.A. Price, et al., Molecular and Cellular Biology, 15, 6188-6195, 1995, incorporated herein by reference).
In this assay, LY364 cells are grown overnight in 2 mL of synthetic complete(SC) medium (3.4 g/L YNB without amino acids and ammonium sulfate, 10 g/L ammonium sulfate and 1.4 g/L CSM-ura-trp) with glucose (2%) and without uracil and tryptophan. These cells are washed and cultured for 4 to 8 hours in 5 mL of SC medium with lactate (3%) and without uracil and tryptophan, and finally grown overnight in 5 mL of SC medium with galactose (2%) and without uracil and tryptophan. Molten (50° C) SC agar medium with galactose (2%) and without uracil, tryptophan and histidine is adjusted to pH 6.8 with KOH, mixed with 2 x 10^4 cells/mL and SRIF (S-14, 10 nM) and poured into square (20 x 20 cm) petri dishes. Sterile filter disks are placed on the surface of the agar, and saturated with 10 µL of water or DMSO containing 5 mg/mL test peptides. After three days, the plates display a uniform cloudy background of […] cells growing in response to the added SRIF. […] This zone is quantified by measuring its diameter (mm), which varies according to the potency of the SRIF antagonist. Those peptides or mixtures of peptides displaying the largest zones of inhibition are further characterized.
Values are compared among samples in the same experiment, as the degree of yeast growth varies somewhat from assay to assay. For the first five sample types, in which progressively less complex mixtures of peptides are found, this assay is the primary determining factor in choosing which samples form the basis of subsequent syntheses.
Plates are read after 3 days. Samples shown in Table I in bold type are chosen for further synthesis. In Table I, all amino acids are D-amino acids and dashes represent undefined amino acid residues.

For `CC[C@@H](C)[C@@H](NC(=O)[C@@H](Cc1ccccc1)NC(=O)[C@@H](Cc1c[nH]cn1)NC(C)=O)C(=O)N[C@H](CCCNC(=N)N)C(=O)N[C@H](Cc1c[nH]c2ccccc12)C(=O)N[C@H](Cc1ccccc1)C(N)=O` [Peptide 1, Ac-D-His-D-Phe-D-Ile-D-Arg-D-Trp-D-Phe-NH2] (Ac-[dH][dF][dI][dR][dW][dF]-NH2), the “effect upon GH levels” value ([1]; 5 µg, 25 µg or 50 µg of peptide 1 thirty minutes after initiation of blood sampling) was “dose related effect upon GH levels”, the “serum GH levels after first dose” value ([1]; highest dose (50 µg) of peptide 1 at 30 min) was “significant increase in serum GH levels” and the “SGH” value ([1]; Peptide 1 5 µg at 30 and 90 min, time 0 min (before dosing)) was 17.0 ng/mL. The “SGH” value ([1]; Peptide 1 5 µg at 30 and 90 min, time 15 min (before dosing)) was 13.6 ng/mL, the “SGH” value ([1]; Peptide 1 5 µg at 30 and 90 min, time 30 min (time of first dose)) was 12.2 ng/mL and the “SGH” value ([1]; Peptide 1 5 µg at 30 and 90 min, time 35 min) was 17.5 ng/mL. For the same compound, the “SGH” value ([1]; Peptide 1 5 µg at 30 and 90 min, time 40 min) was 14.9 ng/mL, the “SGH” value ([1]; Peptide 1 5 µg at 30 and 90 min, time 45 min) was 15.7 ng/mL and the “SGH” value ([1]; Peptide 1 5 µg at 30 and 90 min, time 60 min (time of BIM dose)) was 11.4 ng/mL. For the same compound, the “SGH” value ([1]; Peptide 1 5 µg at 30 and 90 min, time 75 min) was 7.0 ng/mL, the “SGH” value ([1]; Peptide 1 5 µg at 30 and 90 min, time 90 min (time of second dose)) was 2.4 ng/mL and the “SGH” value ([1]; Peptide 1 5 µg at 30 and 90 min, time 95 min) was 3.1 ng/mL. The “SGH” value ([1]; Peptide 1 5 µg at 30 and 90 min, time 100 min) was 1.7 ng/mL, the “SGH” value ([1]; Peptide 1 5 µg at 30 and 90 min, time 105 min) was 1.7 ng/mL and the “SGH” value ([1]; Peptide 1 5 µg at 30 and 90 min, time 135 min) was 1.1 ng/mL. For the same compound, the “SGH” value ([1]; Peptide 1 25 µg at 30 and 90 min, time 0 min (before dosing)) was 19.2 ng/mL, the “SGH” value ([1]; Peptide 1 25 µg at 30 and 90 min, time 15 min (before dosing)) was 17.3 ng/mL and the “SGH” value ([1]; Peptide 1 25 µg at 30 and 90 min, time 30 min (time of first dose)) was 16.6 ng/mL. For the same compound, the “SGH” value ([1]; Peptide 1 25 µg at 30 and 90 min, time 35 min) was 18.4 ng/mL, the “SGH” value ([1]; Peptide 1 25 µg at 30 and 90 min, time 40 min) was 17.5 ng/mL and the “SGH” value ([1]; Peptide 1 25 µg at 30 and 90 min, time 45 min) was 14.0 ng/mL. The “SGH” value ([1]; Peptide 1 25 µg at 30 and 90 min, time 60 min (time of BIM dose)) was 13.1 ng/mL, the “SGH” value ([1]; Peptide 1 25 µg at 30 and 90 min, time 75 min) was 6.8 ng/mL and the “SGH” value ([1]; Peptide 1 25 µg at 30 and 90 min, time 90 min (time of second dose)) was 5.1 ng/mL. For the same compound, the “SGH” value ([1]; Peptide 1 25 µg at 30 and 90 min, time 95 min) was 11.4 ng/mL, the “SGH” value ([1]; Peptide 1 25 µg at 30 and 90 min, time 100 min) was 10.5 ng/mL and the “SGH” value ([1]; Peptide 1 25 µg at 30 and 90 min, time 105 min) was 7.9 ng/mL. The “SGH” value ([1]; Peptide 1 25 µg at 30 and 90 min, time 135 min) was 5.2 ng/mL, the “SGH” value ([1]; Peptide 1 50 µg at 30 and 90 min, time 0 min (before dosing)) was 22.7 ng/mL and the “SGH” value ([1]; Peptide 1 50 µg at 30 and 90 min, time 15 min (before dosing)) was 17.0 ng/mL. The “SGH” value ([1]; Peptide 1 50 µg at 30 and 90 min, time 30 min (time of first dose)) was 19.7 ng/mL, the “SGH” value ([1]; Peptide 1 50 µg at 30 and 90 min, time 35 min) was 50.2 ng/mL and the “SGH” value ([1]; Peptide 1 50 µg at 30 and 90 min, time 40 min) was 23.4 ng/mL. The “SGH” value ([1]; Peptide 1 50 µg at 30 and 90 min, time 45 min) was 15.5 ng/mL, the “SGH” value ([1]; Peptide 1 50 µg at 30 and 90 min, time 60 min (time of BIM dose)) was 17.1 ng/mL and the “SGH” value ([1]; Peptide 1 50 µg at 30 and 90 min, time 75 min) was 3.5 ng/mL. The “SGH” value ([1]; Peptide 1 50 µg at 30 and 90 min, time 90 min (time of second dose)) was 1.9 ng/mL, the “SGH” value ([1]; Peptide 1 50 µg at 30 and 90 min, time 95 min) was 67.3 ng/mL and the “SGH” value ([1]; Peptide 1 50 µg at 30 and 90 min, time 100 min) was 31.8 ng/mL. The “SGH” value ([1]; Peptide 1 50 µg at 30 and 90 min, time 105 min) was 10.5 ng/mL, the “SGH” value ([1]; Peptide 1 50 µg at 30 and 90 min, time 135 min) was 2.6 ng/mL and the “serum GH levels after second dose” value ([1]; second dose of peptide 1, highest dose (50 µg), after BIM 23014C) was “even greater increase in serum GH levels”. For the same compound, the “SGH” value (Male Sprague-Dawley rats; time 35 min) was 195.8 ng/mL, the “SGH” value (Male Sprague-Dawley rats; time 40 min) was 176.2 ng/mL and the “SGH” value (Male Sprague-Dawley rats; time 45 min) was 40.5 ng/mL. The GH levels (Male Sprague-Dawley rats; GRF (1 µg) in combination with peptide 1 (50 µg), compared with GRF alone) was “rise faster and higher than with GRF alone”, the “growth hormone secretory pulses upon withdrawal” value ([2]; conscious male rats, after end of the two hour infusion of 300 µg/hr) was “the pulses resume synchronously, and gradually desynchronize with time” and the “spontaneous growth hormone secretory pulses during infusion” value ([2]; conscious, freely moving male rats, 300 µg/hr intravenously for two hours from 6 hour time point) was “abolition of these pulses”. For the same compound, the “Yeast Assay (mm)” value (SRIF receptors; Table III, diameter of zone of growth inhibition) was 20 mm and the “Inhibition Zone (mm)” value (SRIF receptors; sample type 4th iteration, read after 3 days, compare only within same experiment) was 18 mm.
